Measured values from US20220016135A1, “TREATING BREAST CANCER WITH HORMONE RECEPTOR MODULATORS” (UNIVERSITY OF MIAMI, priority 2020, published 2022).

Columns and labels:
Format in all cases: cell-based, human
[1] = test system: SUM159; assay: cell proliferation assay (cell titer blue), SUM159; details: SUM159 (HR1, VDR+), Calcitrol 25 nM alone; FIG. 24A-24C
[2] = test system: BT20; assay: cell proliferation assay (cell titer blue), BT20; details: BT20 (HR1, VDR+), Calcitrol 25 nM alone; FIG. 24A-24C
[3] = test system: MDA-MB-468; assay: cell proliferation assay (cell titer blue), MDA-MB-468; details: MDA-MB-468 (HR1, VDR+), Calcitrol 25 nM alone; FIG. 24A-24C
[4] = test system: MDA-MB-453; assay: cell proliferation assay, MDA-MB-453; details: ER-negative control cell line MDA-MB-453, ICI 182,780 100 nM; FIG. 24H

| SMILES | proliferation [1] | proliferation [2] | proliferation [3] | inhibition of cell proliferation [4] |
| --- | --- | --- | --- | --- |
| C=C1/C(=C\C=C2/CCC[C@]3(C)[C@@H]([C@H](C)CCCC(C)(C)O)CC[C@@H]23)C[C@@H](O)C[C@@H]1O [Calcitrol, Calcitriol] | reduction in proliferation | reduction in proliferation | reduction in proliferation | – |
| C[C@]12CC[C@@H]3c4ccc(O)cc4C[C@@H](CCCCCCCCC[S+]([O-])CCCC(F)(F)C(F)(F)F)[C@H]3[C@@H]1CC[C@@H]2O (stereo partly shown) [ICI 182,780] | – | – | – | no inhibition of cell proliferation |
